Source: the NIST ThermoML archive (doi:10.1021/acs.jced.9b00011)
± gives the expanded uncertainty stated by the source.

Experiments:
[1] = Crystal; DSC
[2] = Molar enthalpy of transition or fusion; conditions: Crystal; DSC

SMILES	Triple point temperature [1]	Molar enthalpy of transition or fusion [2]
COc1ccc(OC)c(N)c1 [2,5-dimethoxyaniline]	352.56 ± 2.3 K	5.55 ± 1.1 kcal/mol
COc1cc(Cl)c(OC)cc1N [4-chloro-2,5-dimethoxyaniline]	389.38 ± 3.7 K	5.88 ± 0.908 kcal/mol
